Results reported in BindingDB's records for doi:10.3109/14756361003691860 (Tarbiat Modares University, 2010).

Target: Acetylcholinesterase (Homo sapiens, UniProt P22303)
Assay: AChE Inhibition Assay
Details: pH 7.4; 37 °C
Procedure: The reaction was carried out at 37°C in 70 mM phosphate buffer (Na2HPO4/NaH2PO4, pH 7.4) containing the enzyme (20 μl volume, diluted 100 times in phosphate buffer, pH 7.4), DTNB (5,5-dithiobis(2-nitrobenzoic acid)) (10−4M concentration) and ATCh (1.35 × 10−4M concentration). The absorbance change at 37°C was monitored with the spectrophotometer at 412 nm for 3 min. and three replicates were run in each experiment.

Acetylcholinesterase, sequence (P22303 whole entry): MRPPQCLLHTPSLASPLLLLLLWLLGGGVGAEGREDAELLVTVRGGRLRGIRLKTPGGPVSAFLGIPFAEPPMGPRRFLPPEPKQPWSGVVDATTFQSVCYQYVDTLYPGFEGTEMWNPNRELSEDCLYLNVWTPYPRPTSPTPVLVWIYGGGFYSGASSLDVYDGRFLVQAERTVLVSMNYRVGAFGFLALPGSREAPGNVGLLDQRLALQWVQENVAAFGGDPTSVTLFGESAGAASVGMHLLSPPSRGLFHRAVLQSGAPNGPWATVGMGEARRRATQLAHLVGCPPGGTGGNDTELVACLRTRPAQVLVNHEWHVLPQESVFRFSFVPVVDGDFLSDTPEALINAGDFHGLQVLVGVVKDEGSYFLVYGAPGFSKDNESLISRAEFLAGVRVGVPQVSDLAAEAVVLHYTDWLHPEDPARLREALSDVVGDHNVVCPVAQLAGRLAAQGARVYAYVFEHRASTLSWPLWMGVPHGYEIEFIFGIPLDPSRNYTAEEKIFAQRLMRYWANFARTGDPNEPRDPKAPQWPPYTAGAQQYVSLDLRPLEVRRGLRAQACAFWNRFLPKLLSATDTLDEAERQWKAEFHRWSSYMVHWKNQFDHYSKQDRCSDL

| Structure (SMILES) | IC50 |
| --- | --- |
| CCCCCN(CP(=O)(O)O)CP(=O)(O)O [N-Pentyliminobis(methylenephosphonic acid) (4)] | 11.7 mM |
| CCCN(CP(=O)(O)O)CP(=O)(O)O [N-Propyliminobis(methylenephosphonic acid) (3)] | 12.7 mM |
| CCCCC(CC)CN(CP(=O)(O)O)CP(=O)(O)O (stereo unspecified) [N-2-Ethyl hexyliminobis(methylenephosphonic acid) (6)] | 9.48 mM |
| CCN(CP(=O)(O)O)CP(=O)(O)O [N-Ethyliminobis(methylenephosphonic acid) (2)] | 22.1 mM |
| O=P(O)(O)CN(Cc1ccccc1)CP(=O)(O)O [N-Benzyliminobis(methylenephosphonic acid) (7)] | 11.9 mM |
| O=P(O)(O)CN(CP(=O)(O)O)C1CCCCC1 [N-Cyclohexyliminobis(methylenephosphonic acid) (10)] | 9.96 mM |
| CC(C)N(CP(=O)(O)O)CP(=O)(O)O [N-Isopropyliminobis(methylenephosphonic acid) (5)] | 9.11 mM |
| O=P(O)(O)CN(CP(=O)(O)O)C1CCCC1 [N-Cyclopentyliminobis(methylenephosphonic acid) (9)] | 11.1 mM |
| O=P(O)(O)CN1CCCN(CP(=O)(O)O)CC1 [Homopiperazine-1,4-bis(methylenephosphonic acid) (11)] | 28.7 mM |
| O=P(O)(O)CN(CCc1ccccc1)CP(=O)(O)O [N-2-Phenyl ethyliminobis(methylenephosphonic acid) (8)] | 11 mM |
| CN(CP(=O)(O)O)CP(=O)(O)O [N-Methyliminobis(methylenephosphonic acid) (1)] | 28.1 mM |
